Tests used:
Format in all cases: in vivo
[1] = test system: sedge, umbrella (small-flower umbrella sedge, Cyperus difformis); test: Test B flooded paddy test, umbrella sedge; details: 250 g ai/ha, Flood, scale of 0 to 100 where 0 is no effect and 100 is complete control, visually evaluated after 10 to 14 days, read-out: Plant response rating, Sedge, Umbrella
Method: (§1) Plant species in the flooded paddy test selected from barnyardgrass (Echinochloa crusgalli), ducksalad (Heteranthera limosa), rice (Oryza sativa), and sedge, umbrella (small-flower umbrella sedge, Cyperus difformis) were grown to the 2-leaf stage for testing. At time of treatment, test pots were flooded to 3 cm above the soil surface, treated by application of test compounds directly to the paddy water, and then maintained at that water depth for the duration of the test. Treated plants and controls were maintained in a greenhouse for 10 to 14 days, after which time all species were compared to controls and visually evaluated. Plant response ratings, summarized in Table B, are based on a scale of 0 to 100 where 0 is no effect and 100 is complete control. A dash (-) response means no test result.

[2] = test system: goosegrass (Eleusine indica); test: Test A preemergence, goosegrass; details: 0 to 100 scale, 10 days
Text: (§2) Seeds of plant species selected from barnyardgrass (Echinochloa crus-galli), blackgrass (Alopecurus myosuroides), corn (Zea mays), foxtail, giant (giant foxtail, Setaria faberi), goosegrass (Eleusine indica), kochia (Bassia scoparia), oat, wild (wild oat, Avena fatua), pigweed, palmer (palmer amaranth, Amaranthus palmeri), pigweed, redroot (redroot pigweed, Amaranthus retroflexus), ragweed (common ragweed, Ambrosia artemisiifolia), ryegrass, Italian (Italian ryegrass, Lolium multiflorum), soybean (Glycine max), and wheat (Triticum aestivum) were planted into a blend of loam soil and sand and treated preemergence with a directed soil spray using test chemicals formulated in a non-phytotoxic solvent mixture which included a surfactant.
(§3) At the same time, plants selected from these crop and weed species and also galium (catchweed bedstraw, Galium aparine) and horseweed (Erigeron canadensis) were planted in pots containing the same blend of loam soil and sand and treated with postemergence applications of test chemicals formulated in the same manner. Plants ranged in height from 2 to 10 cm and were in the one- to two-leaf stage for the postemergence treatment. Treated plants and untreated controls were maintained in a greenhouse for 10 days, after which time all treated plants were compared to untreated controls and visually evaluated for injury. Plant response ratings, summarized in Table A, are based on a 0 to 100 scale where 0 is no effect and 100 is complete control. A dash (-) response means no test result.

[3] = test system: foxtail, giant (giant foxtail, Setaria faberi); test: Test A postemergence, giant foxtail; details: post-emergence, 240 h, 0 to 100 scale, 10 days, read-out: Plant response rating, Foxtail, Giant; for pest or weed control at 31 g/ha: 31 g ai/ha; for pest or weed control at 125 g/ha: 125 g ai/ha
Text: as §2, §3

corn (Zea mays) = test: Test A preemergence, corn; details: 0 to 100 scale, 10 days
Text: as §2, §3

[4] = test system: blackgrass (Alopecurus myosuroides); test: Test A postemergence, blackgrass; details: 0 to 100 scale, 10 days
Text: as §2, §3

[5] = test system: pigweed, palmer (palmer amaranth, Amaranthus palmeri); test: Test A preemergence, palmer amaranth; details: 0 to 100 scale, 10 days
Text: as §2, §3

[6] = test system: ducksalad (Heteranthera limosa); test: Test B flooded paddy test, ducksalad; details: 250 g ai/ha, Flood, scale of 0 to 100 where 0 is no effect and 100 is complete control, visually evaluated after 10 to 14 days, read-out: Plant response rating, Ducksalad
Method: as §1

[7] = test system: goosegrass (Eleusine indica); test: Test A postemergence, goosegrass; details: 0 to 100 scale, 10 days
Text: as §2, §3

kochia (Bassia scoparia) = test: Test A postemergence, kochia; details: post-emergence, 240 h, 0 to 100 scale, 10 days, read-out: Plant response rating, Kochia; for pest or weed control at 31 g/ha: 31 g ai/ha; for pest or weed control at 125 g/ha: 125 g ai/ha
Text: as §2, §3

[8] = test system: galium (catchweed bedstraw, Galium aparine); test: Test A postemergence, galium; details: post-emergence, 240 h, 0 to 100 scale, 10 days, read-out: Plant response rating, Galium; for pest or weed control at 31 g/ha: 31 g ai/ha; for pest or weed control at 125 g/ha: 125 g ai/ha
Text: as §2, §3

rice (Oryza sativa) = test: Test B flooded paddy test, rice; details: 250 g ai/ha, Flood, scale of 0 to 100 where 0 is no effect and 100 is complete control, visually evaluated after 10 to 14 days, read-out: Plant response rating, Rice
Method: as §1

Compound | pest or weed control at 250 g/ha [1] | Plant response rating, Goosegrass ([2]; 31 g ai/ha) | Plant response rating, Goosegrass ([2]; 125 g ai/ha) | pest or weed control at 31 g/ha [3] | pest or weed control at 125 g/ha [3] | Plant response rating, Corn (corn (Zea mays); 31 g ai/ha) | Plant response rating, Corn (corn (Zea mays); 125 g ai/ha) | Plant response rating, Blackgrass ([4]; 31 g ai/ha) | Plant response rating, Blackgrass ([4]; 125 g ai/ha) | Plant response rating, Pigweed, Palmer ([5]; 31 g ai/ha) | Plant response rating, Pigweed, Palmer ([5]; 125 g ai/ha) | pest or weed control at 250 g/ha [6] | Plant response rating, Goosegrass ([7]; 31 g ai/ha) | Plant response rating, Goosegrass ([7]; 125 g ai/ha) | pest or weed control at 31 g/ha (kochia (Bassia scoparia)) | pest or weed control at 125 g/ha (kochia (Bassia scoparia)) | pest or weed control at 31 g/ha [8] | pest or weed control at 125 g/ha [8] | plant injury at 250 g/ha (rice (Oryza sativa))
Cc1cc(C)c(N2CCC(OC3CC3)C2=O)cc1NS(=O)(=O)C(F)(F)F (centres unmarked) [Compound 3, N-[5-[3-(cyclopropyloxy)-2-oxo-1-pyrrolidinyl]-2,4-dimethylphenyl]-1,1,1-trifluoromethanesulfonamide] | 98% | 70 | 100 | 70% | 90% | 90 | 90 | 40 | 70 | 100 | 100 | 98% | 80 | 90 | 50% | 100% | 70% | 100% | 50%
Cc1cc(C)c(N(COC(=O)C(C)(C)C)S(=O)(=O)C(F)(F)F)cc1N1CCC(OC2CC2)C1=O (centres unmarked) [Compound 7, [[5-[3-(cyclopropyloxy)-2-oxo-1-pyrrolidinyl]-2,4-dimethylphenyl][(trifluoromethyl)sulfonyl]amino]methyl 2,2-dimethylpropanoate] | 90% | 80 | 100 | 60% | 90% | 0 | 50 | 20 | 50 | 50 | 100 | 95% | 90 | 90 | 70% | 80% | 90% | 100% | 30%
Cc1cc(C)c(N(COC(=O)C(C)(C)C)S(=O)(=O)C(F)(F)F)cc1N1CCC(OC2CCCC2)C1=O (centres unmarked) [Compound 5, [[5-[3-(cyclopentyloxy)-2-oxo-1-pyrrolidinyl]-2,4-dimethylphenyl][(trifluoromethyl)sulfonyl]amino]methyl 2,2-dimethylpropanoate] | 85% | 10 | 90 | 0% | 80% | 0 | 20 | 0 | 0 | 10 | 50 | 95% | 50 | 90 | 20% | 70% | 60% | 90% | 0%
C#CCOC1CCN(c2cc(NS(=O)(=O)C(F)(F)F)c(C)cc2C)C1=O (centres unmarked) [Compound 1, N-[2,4-dimethyl-5-[2-oxo-3-(2-propyn-1-yloxy)-1-pyrrolidinyl]phenyl]-1,1,1-trifluoromethanesulfonamide] | 90% |  |  | 40% | 60% |  |  | 10 | 50 |  |  | 80% |  |  | 30% | 80% | 80% | 100% | 30%
